Reference: ChEMBL document CHEMBL1201862, “PubChem BioAssay data set” (2004)
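48-hour exposure; five concentrations; linearly interpolated endpoints. The concentration for 50% growth inhibition is given as GI50.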 Active and inactive are the calls of the source. Rule as the data show it: active = GI50 up to about 1.1 µM and inactive = higher.

Experiments:
Assay in all cases: NCI anticancer screen, dose series, 48 h
HCT-116 = test system: HCT-116
OVCAR-8 = test system: OVCAR-8
SNB-78 = test system: SNB-78
CAKI-1 = test system: CAKI-1
HOP-18 = test system: HOP-18
OVCAR-4 = test system: OVCAR-4
MOLT-4 = test system: MOLT-4
SF-268 = test system: SF-268
UACC-257 = test system: UACC-257
786-0 = test system: 786-0
LOX IMVI = test system: LOX IMVI
SK-MEL-28 = test system: SK-MEL-28
CCRF-CEM = test system: CCRF-CEM
HCC 2998 = test system: HCC 2998
SNB-75 = test system: SNB-75
LXFL 529 = test system: LXFL 529
K562 = test system: K562

Measured: GI50

COC(=O)N/N=c1\cc(C(=O)Nc2ccc(C)c(C)c2)oc2cc(O)ccc12
inactive: HCT-116 > 100 µM | OVCAR-8 > 100 µM | SNB-78 > 100 µM | CAKI-1 > 100 µM | HOP-18 > 100 µM | OVCAR-4 > 100 µM | MOLT-4 > 100 µM | SF-268 > 100 µM | UACC-257 > 100 µM | 786-0 > 100 µM | LOX IMVI > 100 µM | SK-MEL-28 > 100 µM | CCRF-CEM > 100 µM | HCC 2998 > 100 µM | SNB-75 > 100 µM | LXFL 529 > 100 µM | K562 > 100 µM
